From US20040192686A1, “Benzoazine mono-N-oxides and benzoazine 1,4 dioxides and compositions therefrom for the therapeutic use in cancer treatments” (Auckland Uniservices Limited, priority 2003, published 2004)

| SMILES | melting point |
| --- | --- |
| COc1ccc2c(c1)nc(NCCN1CCCCC1)n[n+]2[O-] [Compound 85, 6-Methoxy-N-[2-(1-piperidinyl)ethyl]-1,2,4-benzotriazin-3-amine 1-oxide] | 133 to 135 °C |
| Nc1nc2cc(-c3ccccc3)ccc2[n+]([O-])n1 [Compound 3s, 6-Phenyl-1,2,4-benzotriazin-3-amine 1-oxide] | 256 to 258 °C |
| Nc1nc2cc(F)ccc2[n+]([O-])n1 [Compound 3t, 6-Fluoro-1,2,4-benzotriazin-3-amine 1-oxide] | 276 to 280 °C |
| CCCCSc1cccc2nc(N)n[n+]([O-])c12 [Compound 3g, 8-(Butylsulfanyl)-1,2,4-benzotriazin-3-amine 1-oxide] | 233 to 236 °C |
| Cc1cc(C)c2c(c1)nc(NCCN(C)C)n[n+]2[O-] [Compound 109, N^1-(6,8-Dimethyl-1-oxido-1,2,4-benzotriazin-3-yl)-N^2,N^2-dimethyl-1,2-ethanediamine] | 176 to 179 °C |
| CCN(CC)c1ccc2c(c1)nc(N)n[n+]2[O-] [Compound 13, N^6, N^6-Diethyl-1,2,4-benzotriazine-3,6-diamine 1-oxide] | 247 to 251 °C |
| CCN(CCCNc1nc2ccccc2[n+]([O-])n1)C(=O)OC(C)(C)C [Compound 32, tert-Butyl 3-[(1-oxido-1,2,4-benzotriazin-3-yl)amino]propyl(ethyl)carbamate] | 64 to 66 °C |
| Cc1cccc2nc(Cl)n[n+]([O-])c12 [Compound 100, 3-Chloro-8-methyl-1,2,4-benzotriazine 1-oxide] | 170 to 173 °C |
| Cc1cccc2c1nc(N)n[n+]2[O-] [Compound 3z, 5-Methyl-1,2,4-benzotriazin-3-amine 1-oxide] | 253 to 255 °C |
| Cc1ccc2c(c1)nc(NCCN(C)C)n[n+]2[O-] [Compound 76, N^1,N^1-Dimethyl-N^2-(6-methyl-1-oxido-1,2,4-benzotriazin-3-yl)-1,2-ethanediamine] | 143 to 145 °C |
| CC(C)(C)c1ccc2c(c1)nc(Cl)n[n+]2[O-] [Compound 154, 6-tert-Butyl-3-chloro-1,2,4-benzotriazine 1-oxide] | 91 to 94 °C |
| CN(C)CCNc1nc2cc(C(C)(C)C)ccc2[n+]([O-])n1 [Compound 155, N^1-(6-tert-Butyl-1-oxido-1,2,4-benzotriazin-3-yl)-N^2,N^2-dimethyl-1,2-ethanediamine] | 140 to 144 °C |
| [N-]=[N+]=NCCOCCNc1nc2ccccc2[n+]([O-])n1 [Compound 34, 3-{[2-(2-Azidoethoxy)ethyl]amino}-1,2,4-benzotriazine 1-oxide] | 102 to 104 °C |
| C=CCc1nc2ccccc2[n+]([O-])n1 [Compound 60, 3-Allyl-1,2,4-benzotriazine 1-oxide] | 57 to 58 °C |
| CN(C)CCNC(=O)Cc1ccc(Nc2nc3ccccc3[n+]([O-])n2)cc1 [Compound 54, N-[2-(Dimethylamino)ethyl]-2-{4-[(1-oxido-1,2,4-benzotriazin-3-yl)amino]phenyl}acetamide] | 225 to 226 °C |
| Nc1nc2c(F)cccc2[n+]([O-])n1 [Compound 3ab, 5-Fluoro-1,2,4-benzotriazin-3-amine 1-oxide] | 252 to 256 °C |
| [N-]=[N+]=NCCCNc1nc2ccccc2[n+]([O-])n1 [Compound 28, N-(3-Azidopropyl)-1,2,4-benzotriazin-3-amine 1-oxide] | 128 to 130 °C |
| CN(C)CCc1nc2ccccc2[n+]([O-])n1 | 47 to 49 °C |
| CCOC(=O)CNc1nc2ccccc2[n+]([O-])n1 [Compound 20, Ethyl [(1-oxido-1,2,4-benzotriazin-3-yl)amino]acetate] | 136 to 138 °C |
| [O-][n+]1nc(Cl)nc2ccc(OCCN3CCOCC3)cc21 [Compound 98, 3-Chloro-7-[2-(4-morpholinyl)ethoxy]-1,2,4-benzotriazine 1-oxide] | 144 to 146 °C |
| [O-][n+]1nc(Cl)nc2cc(C(F)(F)F)ccc21 [Compound 142, 3-Chloro-6-trifluoromethyl-1,2,4-benzotriazine 1-Oxide] | 118 to 120 °C |
| [O-][n+]1nc(NCCN2CCCCC2)nc2cc(Cl)ccc21 [Compound 135, 6-Chloro-N-[2-(1-piperidinyl)ethyl]-1,2,4-benzotriazin-3-amine 1-Oxide] | 178 to 181 °C |
| Cc1ccc2c(c1)nc(NCCN1CCOCC1)n[n+]2[O-] [Compound 138, 6-Methyl-N-[2-(4-morpholinyl)ethyl]-1,2,4-benzotriazin-3-amine 1-Oxide] | 182 to 184 °C |
| Cc1ccc2nc(NCCN3CCCCC3)n[n+]([O-])c2c1 [Compound 89, 7-Methyl-N-[2-(1-piperidinyl)ethyl]-1,2,4-benzotriazin-3-amine 1-oxide] | 166 to 168 °C |
| COc1ccc2c(c1)nc(NCCN1C(C)CCCC1C)n[n+]2[O-] (stereo not shown) [Compound 141, N-[2-(2,6-Dimethyl-1-piperidinyl)ethyl]-6-methoxy-1,2,4-benzotriazin-3-amine 1-oxide] | 170 to 171 °C |
| COc1cc2nc(N)n[n+]([O-])c2cc1C [Compound 112, 6-Methoxy-7-methyl-1,2,4-benzotriazin-3-amine 1-oxide] | 289 to 292 °C |

| SMILES | melting point |
| --- | --- |
| C=CCc1nc2cc(C)ccc2[n+]([O-])n1 [Compound 80, 3-Allyl-6-methyl-1,2,4-benzotriazine 1-oxide] | 65 to 67 °C |
| CCCN(CCC)CCNc1nc2cc(C(C)C)ccc2[n+]([O-])n1 [Compound 151, N^1-(6-Isopropyl-1-oxido-1,2,4-benzotriazin-3-yl)-N^2,N^2-dipropyl-1,2-ethanediamine] | 79 to 81 °C |
| Cc1ccc2c(c1)nc(NCCO)n[n+]2[O-] [Compound 74, 2-[(6-Methyl-1-oxido-1,2,4-benzotriazin-3-yl)amino]ethanol] | 198 to 202 °C |
| COc1ccc(-c2nc3ccccc3[n+]([O-])n2)cc1 [Compound 58, 3-(4-Methoxyphenyl)-1,2,4-benzotriazine 1-oxide] | 168 to 170 °C |
| COCCc1nc2ccccc2[n+]([O-])n1 [Compound 63, 3-(2-Methoxyethyl)-1,2,4-benzotriazine 1-oxide] | 56 to 58 °C |
| [O-][n+]1nc(NCCN2CCOCC2)nc2ccccc21 [Compound 41, N-[2-(4-Morpholinyl)ethyl]-1,2,4-benzotriazin-3-amine 1-oxide] | 170 to 172 °C |
| Cc1cc(C)c2c(c1)nc(Cl)n[n+]2[O-] [Compound 108, 3-Chloro-6,8-dimethyl-1,2,4-benzotriazine 1-oxide] | 120 to 122 °C |
| [O-][n+]1nc(Cl)nc2cc(Cl)ccc21 [Compound 133, 3,6-Dichloro-1,2,4-benzotriazine 1-Oxide] | 149 to 151 °C |
| N#CCCNc1nc2ccccc2[n+]([O-])n1 [Compound 26, 3-[(1-Oxido-1,2,4-benzotriazin-3-yl)amino]propanenitrile] | 191 to 193 °C |
| CC(C)(C)ONC(=O)CCOCCNc1nc2ccccc2[n+]([O-])n1 [Compound 35, 3-{[2-(2-tert-Butyloxycarbamoylethoxy)ethyl]amino}-1,2,4-benzotriazine 1-oxide] | 134 to 137 °C |
| CCN(CC)CCNc1nc2cc(C)ccc2[n+]([O-])n1 [Compound 137, N^1,N^1-Diethyl-N^2-(6-methyl-1-oxido-1,2,4-benzotriazin-3-yl)-1,2-ethanediamine] | 78 to 80 °C |
| COc1cc2c(cc1C)nc(NCCN(C)C)n[n+]2[O-] [Compound 118, N^1,N^1-Dimethyl-N^2-(7-methoxy-6-methyl-1-oxido-1,2,4-benzotriazin-3-yl)-1,2-ethanediamine] | 182 to 184 °C |
| COc1ccc2c(c1)nc(N)n[n+]2[O-] [Compound 3q, 6-Methoxy-1,2,4-benzotriazin-3-amine 1-oxide] | 265 to 270 °C |
| Nc1nc2cccc(Cl)c2[n+]([O-])n1 [Compound 3d, 8-Chloro-1,2,4-benzotriazin-3-amine 1-oxide] | 280 to 290 °C (dec.) |
| [O-][n+]1nc(NCCOCCO)nc2ccccc21 [Compound 33, 3-{[2-(2-Hydroxyethoxy)ethyl]amino}-1,2,4-benzotriazine 1-oxide] | 131 to 131.5 °C |
| COc1cccc2nc(N)n[n+]([O-])c12 (hydrate or solvate) [Compound 3a, 8-Methoxy-1,2,4-benzotriazin-3-amine 1-oxid] | 235 to 239 °C |
| CN(C)CCCc1nc2ccccc2[n+]([O-])n1.Cl | 228 to 230 °C |
| COCCNc1nc2ccccc2[n+]([O-])n1 [Compound 23, N-(2-Methoxyethyl)-1,2,4-benzotriazin-3-amine 1-oxide] | 155 to 156 °C |
| O=C(O)CNc1nc2ccccc2[n+]([O-])n1 [Compound 21, [(1-Oxido-1,2,4-benzotriazin-3-yl)amino]acetic acid] | 217 to 219 °C |
| Cc1ccc2c(c1)nc(Cl)n[n+]2[O-] [Compound 73, 3-Chloro-6-methyl-1,2,4-benzotriazine 1-oxide] | 156 to 158 °C |
| COc1cc2c(cc1C)nc(Cl)n[n+]2[O-] [Compound 117, 3-Chloro-7-methoxy-6-methyl-1,2,4-benzotriazine 1-oxide] | 200 to 202 °C |
| Cc1cccc2nc(NCCN3CCOCC3)n[n+]([O-])c12 [Compound 163, 8-Methyl-N-[2-(4-morpholinyl)ethyl]-1,2,4-benzotriazin-3-amine 1-Oxide] | 168 to 170 °C |
| Cc1ccc2c(c1)nc(NCCCN1CCOCC1)n[n+]2[O-] [Compound 139, 6-Methyl-N-[3-(4-morpholinyl)propyl]-1,2,4-benzotriazin-3-amine 1-Oxide] | 131 to 132 °C |
| CN(C)c1ccc2nc(N)n[n+]([O-])c2c1 [Compound 11, N^7,N^7-Dimethyl-1,2,4-benzotriazine-3,7-diamine 1-oxide] | 231 to 233 °C |
| Cl.[O-][n+]1nc(CCCN2CCCCC2)nc2ccccc21 | 151 to 153 °C |
| Cc1ccc2nc(N)n[n+]([O-])c2c1 [Compound 3j, 7-Methyl-1,2,4-benzotriazin-3-amine 1-oxide] | 270 °C (dec.) |
